According to ChEMBL document CHEMBL4406889, “The identification and pharmacological evaluation of potent, selective and orally available ACC1 inhibitor” (Bioorg Med Chem Lett, 2019):

Assays:
Acetyl-CoA carboxylase 2 [1] = target: Acetyl-CoA carboxylase 2 (Homo sapiens, UniProt O00763); assay: biochemical
Description: Inhibition of recombinant human His-tagged ACC2 expressed in baculovirus infected SF9 cells using acetyl-CoA as substrate incubated for 60 mins followed by substrate addition and measured after 30 mins Rapidfire-Mass spectrometry

Acetyl-CoA carboxylase 1 [2] = target: Acetyl-CoA carboxylase 1 (Homo sapiens, UniProt Q13085); assay: biochemical
Description: Inhibition of recombinant human His-tagged ACC1 expressed in baculovirus infected SF9 cells using acetyl-CoA as substrate incubated for 60 mins followed by substrate addition and measured after 30 mins Rapidfire-Mass spectrometry

in vivo [3] = conditions: ICR, mouse, iv, 0.1 mg/kg
Description: Half life in ICR mouse at 0.1 mg/kg, iv

in vitro [4] = conditions: PAMPA, pH 7.4
Description: Permeability of compound at pH 7.4 by PAMPA assay

in vitro [5] = conditions: PAMPA, pH 5
Description: Permeability of compound at pH 5 by PAMPA assay

in vitro [6] = conditions: human, liver microsomes
Description: Metabolic stability in human Liver microsomes

in vivo [7] = conditions: ICR, mouse, iv, 0.1 mg/kg; remark: listed apart in the source
Description: Volume of distribution at steady state in ICR mouse at 0.1 mg/kg, iv

in vitro [8] = conditions: mouse, liver microsomes
Description: Metabolic stability in mouse Liver microsomes

in vivo [9] = conditions: ICR, mouse, iv, 0.1 mg/kg; remark: listed apart in the source
Description: Clearance in ICR mouse at 0.1 mg/kg, iv

in vivo [10] = conditions: ICR, mouse, iv, 0.1 mg/kg; remark: listed apart in the source
Acetyl-CoA carboxylase 2 [11] = target: Acetyl-CoA carboxylase 2 (Mus musculus, UniProt E9Q4Z2); assay: biochemical
Sequence of Acetyl-CoA carboxylase 2 (Mus musculus, UniProt E9Q4Z2) (E9Q4Z2 whole entry): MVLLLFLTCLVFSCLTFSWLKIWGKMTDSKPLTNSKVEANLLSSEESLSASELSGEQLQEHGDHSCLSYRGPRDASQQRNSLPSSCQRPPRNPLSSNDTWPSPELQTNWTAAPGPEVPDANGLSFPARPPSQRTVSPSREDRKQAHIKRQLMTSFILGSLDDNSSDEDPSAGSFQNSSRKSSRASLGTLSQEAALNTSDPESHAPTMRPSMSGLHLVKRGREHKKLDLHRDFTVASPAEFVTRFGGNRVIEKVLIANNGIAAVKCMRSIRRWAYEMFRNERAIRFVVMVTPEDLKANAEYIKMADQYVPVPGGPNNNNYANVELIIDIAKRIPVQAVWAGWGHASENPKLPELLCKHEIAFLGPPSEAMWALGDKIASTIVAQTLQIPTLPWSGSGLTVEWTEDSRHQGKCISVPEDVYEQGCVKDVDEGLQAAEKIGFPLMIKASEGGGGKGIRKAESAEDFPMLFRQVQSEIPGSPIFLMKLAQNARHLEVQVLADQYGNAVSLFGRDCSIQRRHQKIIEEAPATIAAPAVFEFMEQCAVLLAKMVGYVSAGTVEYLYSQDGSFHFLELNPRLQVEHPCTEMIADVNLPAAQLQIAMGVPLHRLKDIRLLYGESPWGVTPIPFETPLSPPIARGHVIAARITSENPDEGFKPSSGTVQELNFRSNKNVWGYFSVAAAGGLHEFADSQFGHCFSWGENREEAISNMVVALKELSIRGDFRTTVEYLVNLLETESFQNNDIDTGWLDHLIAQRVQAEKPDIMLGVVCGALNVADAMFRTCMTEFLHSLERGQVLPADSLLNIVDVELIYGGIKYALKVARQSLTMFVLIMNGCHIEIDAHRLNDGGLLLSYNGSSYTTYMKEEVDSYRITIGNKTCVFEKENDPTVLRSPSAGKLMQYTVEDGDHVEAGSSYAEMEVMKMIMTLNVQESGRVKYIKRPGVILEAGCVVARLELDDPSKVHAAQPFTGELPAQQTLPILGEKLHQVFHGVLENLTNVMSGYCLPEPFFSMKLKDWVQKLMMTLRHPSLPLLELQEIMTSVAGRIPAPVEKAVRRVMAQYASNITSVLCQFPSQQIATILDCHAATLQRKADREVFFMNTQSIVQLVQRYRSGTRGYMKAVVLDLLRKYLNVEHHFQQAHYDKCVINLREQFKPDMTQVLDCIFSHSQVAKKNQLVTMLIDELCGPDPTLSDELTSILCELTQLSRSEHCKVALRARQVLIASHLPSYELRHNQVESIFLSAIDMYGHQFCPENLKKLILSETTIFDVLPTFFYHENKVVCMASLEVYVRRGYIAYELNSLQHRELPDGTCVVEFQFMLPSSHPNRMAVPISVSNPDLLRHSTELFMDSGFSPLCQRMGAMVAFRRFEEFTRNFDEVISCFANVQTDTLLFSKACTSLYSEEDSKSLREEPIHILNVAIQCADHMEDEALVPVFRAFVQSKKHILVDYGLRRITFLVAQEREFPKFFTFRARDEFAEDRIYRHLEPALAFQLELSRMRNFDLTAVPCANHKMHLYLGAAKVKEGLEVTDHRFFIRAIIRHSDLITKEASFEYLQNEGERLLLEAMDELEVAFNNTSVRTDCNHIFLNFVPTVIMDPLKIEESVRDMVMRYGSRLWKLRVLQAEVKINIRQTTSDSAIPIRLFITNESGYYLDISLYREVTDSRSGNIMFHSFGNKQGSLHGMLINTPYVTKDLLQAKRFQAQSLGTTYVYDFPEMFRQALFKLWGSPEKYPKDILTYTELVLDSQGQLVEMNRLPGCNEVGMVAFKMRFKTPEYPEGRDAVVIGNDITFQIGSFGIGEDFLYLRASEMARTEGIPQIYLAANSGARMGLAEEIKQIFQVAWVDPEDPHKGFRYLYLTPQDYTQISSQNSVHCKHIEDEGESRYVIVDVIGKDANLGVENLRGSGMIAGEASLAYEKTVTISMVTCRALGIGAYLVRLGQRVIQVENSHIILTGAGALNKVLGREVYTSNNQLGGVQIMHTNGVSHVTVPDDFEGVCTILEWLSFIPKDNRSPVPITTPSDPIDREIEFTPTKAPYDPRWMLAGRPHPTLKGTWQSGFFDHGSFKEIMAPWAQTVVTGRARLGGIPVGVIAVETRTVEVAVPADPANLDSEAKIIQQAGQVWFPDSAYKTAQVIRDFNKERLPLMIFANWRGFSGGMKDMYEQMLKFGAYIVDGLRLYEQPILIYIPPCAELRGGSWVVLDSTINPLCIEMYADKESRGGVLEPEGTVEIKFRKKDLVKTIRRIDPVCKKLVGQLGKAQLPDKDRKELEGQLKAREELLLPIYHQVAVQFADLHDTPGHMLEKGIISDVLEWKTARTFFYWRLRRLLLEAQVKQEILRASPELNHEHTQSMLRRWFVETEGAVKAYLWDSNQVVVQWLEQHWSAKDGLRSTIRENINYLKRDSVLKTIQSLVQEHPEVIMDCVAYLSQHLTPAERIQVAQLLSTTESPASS
Description: Inhibition of mouse His-tagged ACC2 expressed in baculovirus infected SF9 cells using acetyl-CoA as substrate incubated for 60 mins followed by substrate addition and measured after 30 mins Rapidfire-Mass spectrometry

in vivo [12] = conditions: ICR, mouse, po, 1 mg/kg
Acetyl-CoA carboxylase 1 [13] = target: Acetyl-CoA carboxylase 1 (Mus musculus, UniProt Q5SWU9); assay: biochemical
Description: Inhibition of mouse His-tagged ACC1 expressed in baculovirus infected SF9 cells using acetyl-CoA as substrate incubated for 60 mins followed by substrate addition and measured after 30 mins Rapidfire-Mass spectrometry

in vivo [14] = conditions: ICR, mouse, po, 1 mg/kg; remark: listed apart in the source
in vivo [15] = conditions: ICR, mouse, po, 1 mg/kg; remark: listed apart in the source
Description: MRT in ICR mouse at 1 mg/kg, po

Sequence of Acetyl-CoA carboxylase 2 (Homo sapiens, UniProt O00763) (O00763 whole entry): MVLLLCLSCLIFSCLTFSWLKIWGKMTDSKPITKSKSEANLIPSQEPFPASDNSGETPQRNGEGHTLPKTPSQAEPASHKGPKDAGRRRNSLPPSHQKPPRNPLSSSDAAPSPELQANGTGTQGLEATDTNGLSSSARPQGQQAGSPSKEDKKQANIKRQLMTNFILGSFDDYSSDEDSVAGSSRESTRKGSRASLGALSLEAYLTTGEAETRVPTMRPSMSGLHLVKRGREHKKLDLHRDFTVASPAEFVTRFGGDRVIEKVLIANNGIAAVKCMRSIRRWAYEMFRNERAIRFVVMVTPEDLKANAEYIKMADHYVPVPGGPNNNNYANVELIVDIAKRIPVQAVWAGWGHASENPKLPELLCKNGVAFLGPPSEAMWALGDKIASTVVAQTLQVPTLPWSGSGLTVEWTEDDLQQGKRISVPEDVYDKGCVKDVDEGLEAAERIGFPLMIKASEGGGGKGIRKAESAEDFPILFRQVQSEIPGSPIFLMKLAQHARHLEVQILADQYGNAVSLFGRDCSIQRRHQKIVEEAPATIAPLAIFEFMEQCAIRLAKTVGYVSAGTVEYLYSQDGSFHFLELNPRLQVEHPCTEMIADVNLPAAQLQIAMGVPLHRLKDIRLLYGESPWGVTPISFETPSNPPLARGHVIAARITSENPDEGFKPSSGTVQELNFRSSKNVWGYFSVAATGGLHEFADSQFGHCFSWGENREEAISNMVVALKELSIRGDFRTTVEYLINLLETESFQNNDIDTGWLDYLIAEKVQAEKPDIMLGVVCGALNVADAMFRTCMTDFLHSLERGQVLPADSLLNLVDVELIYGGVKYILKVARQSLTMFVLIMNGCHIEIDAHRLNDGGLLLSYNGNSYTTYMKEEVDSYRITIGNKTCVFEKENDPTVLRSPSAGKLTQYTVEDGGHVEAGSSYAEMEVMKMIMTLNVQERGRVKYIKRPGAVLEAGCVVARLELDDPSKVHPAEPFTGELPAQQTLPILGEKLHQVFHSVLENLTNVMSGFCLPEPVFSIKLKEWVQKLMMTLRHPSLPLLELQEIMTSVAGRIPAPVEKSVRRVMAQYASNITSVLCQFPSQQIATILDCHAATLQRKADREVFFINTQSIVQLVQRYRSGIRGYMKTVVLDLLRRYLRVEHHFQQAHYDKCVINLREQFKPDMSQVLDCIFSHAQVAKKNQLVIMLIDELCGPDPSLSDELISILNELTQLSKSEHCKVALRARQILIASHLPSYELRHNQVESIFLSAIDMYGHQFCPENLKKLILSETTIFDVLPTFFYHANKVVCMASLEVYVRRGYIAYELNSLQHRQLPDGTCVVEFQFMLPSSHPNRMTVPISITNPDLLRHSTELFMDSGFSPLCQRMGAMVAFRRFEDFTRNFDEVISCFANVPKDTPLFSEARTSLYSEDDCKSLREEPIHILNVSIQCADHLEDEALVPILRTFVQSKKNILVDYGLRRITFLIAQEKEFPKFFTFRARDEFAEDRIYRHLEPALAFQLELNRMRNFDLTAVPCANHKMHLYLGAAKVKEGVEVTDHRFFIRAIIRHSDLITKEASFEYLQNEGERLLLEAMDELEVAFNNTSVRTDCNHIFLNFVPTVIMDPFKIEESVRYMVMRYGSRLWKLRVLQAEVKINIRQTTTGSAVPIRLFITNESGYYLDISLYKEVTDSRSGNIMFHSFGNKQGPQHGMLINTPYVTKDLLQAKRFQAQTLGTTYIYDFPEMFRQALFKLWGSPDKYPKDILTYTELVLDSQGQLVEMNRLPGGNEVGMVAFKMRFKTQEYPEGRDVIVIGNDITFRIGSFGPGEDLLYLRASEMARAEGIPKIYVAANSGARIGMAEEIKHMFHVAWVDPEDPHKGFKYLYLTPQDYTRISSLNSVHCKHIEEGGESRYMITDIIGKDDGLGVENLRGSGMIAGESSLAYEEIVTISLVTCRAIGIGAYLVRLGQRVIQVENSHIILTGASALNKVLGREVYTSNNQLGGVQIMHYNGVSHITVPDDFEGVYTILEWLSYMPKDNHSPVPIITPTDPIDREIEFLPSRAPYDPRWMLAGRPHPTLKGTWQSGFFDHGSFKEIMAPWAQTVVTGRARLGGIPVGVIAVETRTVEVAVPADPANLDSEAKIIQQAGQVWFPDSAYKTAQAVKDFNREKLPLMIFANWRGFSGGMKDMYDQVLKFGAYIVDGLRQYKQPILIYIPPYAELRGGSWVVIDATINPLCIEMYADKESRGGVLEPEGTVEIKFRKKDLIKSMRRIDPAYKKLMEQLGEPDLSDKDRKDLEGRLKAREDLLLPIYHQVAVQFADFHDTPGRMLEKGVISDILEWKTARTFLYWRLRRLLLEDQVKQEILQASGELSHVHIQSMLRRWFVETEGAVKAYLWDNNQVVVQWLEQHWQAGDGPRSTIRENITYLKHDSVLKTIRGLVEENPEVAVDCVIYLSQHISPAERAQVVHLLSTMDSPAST

Row | IC50 (Acetyl-CoA carboxylase 2 [1]) [µM] | IC50 (Acetyl-CoA carboxylase 1 [2]) [µM] | half-life (in vivo [3]) [h] | Papp (in vitro [4]) [nm/s] | Papp (in vitro [5]) [nm/s] | microsomal CLint (in vitro [6]) [µL/min/mg] | Vd (in vivo [7]) [L/kg] | microsomal CLint (in vitro [8]) [µL/min/mg] | clearance (in vivo [9]) [L/h/kg] | Cmax (in vivo [10]) [µg/mL] | IC50 (Acetyl-CoA carboxylase 2 [11]) [µM] | bioavailability (in vivo [12]) [%] | IC50 (Acetyl-CoA carboxylase 1 [13]) [µM] | AUC(0-t) at 8 h (in vivo [14]) [µg·h/mL] | MRT (in vivo [15]) [h] | Compound
1 | 0.08 | 0.0021 |  |  |  |  |  |  |  |  |  |  |  |  |  | CC(NC(=O)N(C)C)c1ccc2nc(-c3ccc(Oc4cccc(OCC5CC5)c4)nc3)oc2c1 (configuration not stated)
2 |  |  | > 8 | 337 | 272 | 27 | 0.269 | 65 | 0.088 | 1.11 | 0.036 | 60.6 | 0.00018 | 6.88 | 3.69 | CC(=O)NC(C)c1ccc2nc(-c3ccc(Oc4cccc(OCC5CC5)c4)nc3)oc2c1 (configuration not stated)
3 | 0.077 | 0.0038 |  |  |  |  |  |  |  |  |  |  |  |  |  | CNC(=O)NC(C)c1ccc2nc(-c3ccc(Oc4cccc(OCC5CC5)c4)nc3)oc2c1 (configuration not stated)
